Data published in publication PMC4689404, “2-Benzazolyl-4-Piperazin-1-Ylsulfonylbenzenecarbohydroxamic Acids as Novel Selective Histone Deacetylase-6 Inhibitors with Antiproliferative Activity” (PLoS ONE, 2015).

Assays:
[1] = system: HCC4017 lung cancer cells; assay: cell cycle analysis (PI, FACS); format: cell-based, human
Description: (§1) For cell cycle analysis, cells were washed with PBS, fixed in 70% ethanol for 2 h, washed with PBS and resuspended in staining solution (0.1% Triton X-100, 0.2 mg/ml DNAse-free RNAse A and […]) and incubated at 37C for 15 min. Histograms were acquired on a BD FACSCalibur flow cytometer at UT Southwestern’s core facility. Apoptosis was measured using a FITC Annexin V Apoptosis Detection Kit I (BD Pharmingen) according to manufacturer’s protocol after treating cells with compounds as indicated in Figure legends.

HCC4017 cells = assay: Annexin V apoptosis assay; format: cell-based, human; conditions: 18h, 40h, 64h
Description: as §1

## Cn1c(N2CCN(S(=O)(=O)c3ccc(C(=O)NO)cc3)CC2)nc2ccccc21 [Compound 9b, 4-[4-(1-methylbenzimidazol-2-yl)piperazin-1-yl]sulfonylbenzenecarbohydroxamic acid]
[1]; HCC4017, FACs analysis
  effect on cell cycle distribution: affect cell cycle distribution after just 18h of treatment
[1]; HCC4017, even after 64h
  subG0 population: no subG0 population was observed
HCC4017 cells
  Annexin V staining, percent of dead cells: did not show any reproducible significant changes
